# Measured values published in US20110300132A1, “4-AMINOQUINAZOLINE PRODRUGS” (Concert Pharmaceuticals, Inc., priority 2008, published 2011).
# Read-outs that look alike come from different tables or passages of the source.
# Tests used:
# [1] = Evaluation of aqueous solubility in different aqueous buffers (HPLC quantification); assay type: physicochemical; conditions: thermodynamic from solid, equilibrated at 25° C. for 24 hours
# Experimental: Aqueous solubility of the compounds of this invention was determined by suspending sufficient compound in different aqueous buffers to give a maximum final concentration of ≧10 mg/mL of the compound. The resulting suspension was equilibrated at 25° C. for 24 hours then the pH is measured. The suspension was then filtered through a glass fibre C filter into a 96 well plate. The filtrate was diluted by a factor of 10. Quantification was by HPLC with reference to a standard solution in DMSO. Different volumes of the standard, diluted and undiluted sample solutions were injected. The solubility was calculated using the peak areas determined by integration of the peak found at the same retention time as the principal peak in the standard injection.
# [2] = as reported on FDA approved label, cited from earlier work
# [3] = Buffer: FaSSIF (fasted state simulated intestinal fluid), final pH 6.61 (103), 6.58 (101)
"solubility at 24 h ([1]; aqueous buffer, Buffer: Phosphate pH 6.3, final pH 6.45) [µg/mL]","solubility at 24 h ([1]; aqueous buffer, Buffer: Phosphate pH 6.8, final pH 7.03) [µg/mL]","solubility at 24 h ([1]; aqueous buffer, Buffer: Phosphate pH 7.3, final pH 7.41) [µg/mL]","solubility at 24 h [1, 3] [µg/mL]",Structure (SMILES),Solubility ([2]; 0.1N HCl) [µg/mL],Solubility ([2]; Water) [µg/mL]
170,520,4600,9100,"CS(=O)(=O)CCN(Cc1ccc(-c2ccc3ncnc(Nc4ccc(OCc5cccc(F)c5)c(Cl)c4)c3c2)o1)C(=O)OCOP(=O)([O-])[O-].[Na+].[Na+] [Compound 103, Sodium (((5-(4-(3-Chloro-4-(3-fluorobenzyloxy)phenylamino)quinazolin-6-yl)furan-2-yl)methyl)(2-(methylsulfonyl)ethyl)carbamoyloxy)methyl phosphate]",,
,,,,"CS(=O)(=O)CCNCc1ccc(-c2ccc3ncnc(Nc4ccc(OCc5cccc(F)c5)c(Cl)c4)c3c2)o1.Cc1ccc(S(=O)(=O)O)cc1.Cc1ccc(S(=O)(=O)O)cc1.O [Lapatinib ditosylate, N-[3-Chloro-4-(3-fluorobenzyloxy)phenyl]-6-[5-[2-(methylsulfonyl)ethylaminomethyl]furan-2-yl]quinazolin-4-amine bis(4-methylbenzenesulfonate) hydrate]",1,7
,,,25,"CS(=O)(=O)CCN(Cc1ccc(-c2ccc3ncnc(Nc4ccc(OCc5cccc(F)c5)c(Cl)c4)c3c2)o1)C(=O)OCOP(=O)(O)O [Compound 101, Phosphonooxymethyl (5-(4-(3-chloro-4-(3-fluorobenzyloxy)phenylamino)quinazolin-6-yl)furan-2-yl)methyl(2-(methylsulfonyl)ethyl)carbamate]",,
